The subject of test [1] is M-NFS-60 mouse myeloid leukemia lymphocytes. Kind of test: CSF-1R-related cell proliferation experiment (Cell Titer Glo), M-NFS-60 cells with M-CSF. It counts as cell-based. The following applies: Lymphocyte, 72 h, 3 days, CTG, * = average of multiple tests. How it is done:
C. CSF-1R-Related Cell Proliferation Experiment
Functional effects of compounds on cell proliferation were evaluated by using Cell Titer Glo (CTG) study in the present invention. M-NFS-60 mouse myeloid leukemia lymphocytes (cat. No. CCBJ078) from National Institutes For Food and Drug Control were cultured in the incubator under conditions of RPMI 1640 (Gibco, cat. No. 11875-119), 10% fetal bovine serum (Gibco, 10099-141), human 10 ng/mL M-CSF macrophage colony-stimulating factor (R&D, cat. No. MVN0915101), 37° C., and 5% CO2. Since ATP is an index for viable cell metabolism, CTG (Promega, #G7573) reagent is a homogeneous detection method for detecting the number of viable cells in the culture by quantifying ATP. Therefore, compound-mediated inhibition for cell proliferation/survival was evaluated by quantifying ATP content in cells, and the specific experimental process was as follows:
1. The cells were plated into a tissue-culture-medium-treated 96-well plate (Costar #3904) with 5,000 cells/well/80 μL fresh culture medium;
2. 24 hours later, 10 μL culture medium containing testing compound with 10-fold of final concentration was added to each well;
3. 10 μL of culture medium containing M-CSF with 10-fold of the final concentration was then added to each well;
4. dosage effect was evaluated by testing the 3-fold serial dilutions of the compound;
(§1) 5. after the cells were incubated for 3 days at 37° C. and 5% CO2, the inhibition on cell survival was quantified after 50 μL of CTG was added and the luminescence assay was performed;
(§2) 6. the compound concentration leading to half maximal inhibitory (IC50) and the compound concentration leading to absolute half maximal inhibitory (Absolute IC50) were measured by a plate reader (M1000, Tecan) and a four-parameter curve fit in Graphpad Prism 7.
(In ATP-based viability assays light output follows the ATP content of the culture.)

The target in another test is CSF-1R (Homo sapiens, UniProt P07333). Kind of test: CSF-1R in vitro biochemical kinase study (ADP-Glo assay). The following applies: 500 μM ATP, * = average of multiple tests, read-out: Enzymatic experiment CSF1R IC50. How it is done:
A. CSF-1R In Vitro Biochemical Kinase Study
In the present invention, the inhibitory activity of compounds against the CSF-1R activity was determined by using CSF-1R ADP-Glo assay. The compound-mediated inhibition effect was achieved by inhibiting the production of ADP from consumption of ATP, and the activities of compounds were evaluated by using the ADP-Glo kit (Promega, cat. No. V9101). The specific experimental process was as follows:
1. The kinase reaction performed in the present invention was carried out in a 384-well plate (Perkinelmer, cat. No. 6007290), 3.95 nM of CSF-1R, 500 μM of ATP, and 0.2 mg/mL of polypeptide (Poly (Glu4, Try1), Sigma, cat. No. P0275) were respectively weighed and added to each well:
2. following reagents were then added to each well to reach the final reaction system: 40 mM Tris, pH 7.5, 20 mM MgCl2, 0.01% Triton X-100, 0.1 mg/mL BSA, 2.5 mM DTT, and 0.1% DMSO;
3. the reaction was conducted at 30° C. for 60 min;
4. then an equal volume of stop solution (ADP-Glo) was added to the kinase reaction system;
5. the mixed solution was incubated at 25° C. for 60 min, and the kinase reaction was then terminated;
6. a two-fold volume of detection reagent was then added to each well;
7. the mixed solution was incubated at 25° C. for 30 min;
8. the compound IC50 value was measured by using a plate reader (Tecan, M1000) and a four-parameter curve was generated in Graphpad Prism.
Background: ADP-Glo turns the ADP formed in a reaction into a luminescent signal.

The test system of test [2] is M-07e human cytomegalic leukemia cells. Kind of test: Cell proliferation (Cell Titer Glo), M-07e cells with SCF (KIT). As to conditions: 72 h, 3 days, CTG, * = average of multiple tests, read-out: Cytological experiment KIT IC50. In kind it is cell-based. How it is done: (§3) D. CSF-1R-Related Cell Proliferation Experiment
(§4) Functional effects of compounds on the proliferation of several cell lines were evaluated by Cell Titer Glo (CTG) studies in the present invention, and effects of the compounds on the proliferation of different cells were evaluated to determine the selectivity degree of the compounds. In the experiment, M-07e human cytomegalic leukemia cells (cat. No. CBP60791) from Nanjing Kebai Biotechnology Co., Ltd. were cultured in an incubator under conditions of RPMI1640 (Gibco, cat. No. 11875-119), 20% fetal bovine serum (Gibco, 10099-141), human 10 ng/mL GM-CSF granulocyte macrophage colony-stimulating factors (R&D, cat. No. 215-GM-010), 37° C., and 5% CO2; and Kasumi-1 human acute myeloblastic leukemia cells (cat. No. CBP60524) were cultured in an incubator under conditions of RPMI1640 (Gibco, cat. No. 11875-119), 20% fetal bovine serum (Gibco, 10099-141), 37° C., and 5% CO2: NCI-H1703 human non-small cell lung squamous carcinoma cells (cat. No. CBP60115) were cultured in an incubator under conditions of RPMI1640 (Gibco, cat. No. 11875-119), 10% fetal bovine serum (Gibco, 10099-141), 37° C., and 5% CO2; MV-4-11 human acute monocytic leukemia cells (cat. No. CBP60522) were cultured in an incubator under conditions of IMDM (Invitrogen, cat. No. 12440053), 20% fetal bovine serum (Gibco, 10099-141), 37° C., and 5% CO2. Since ATP is an index for viable cell metabolism, CTG (Promega, #G7573) reagent is a homogeneous detection method for detecting the number of viable cells in the culture by quantifying ATP. Therefore, compound-mediated inhibition for cell proliferation/survival was evaluated by quantifying ATP content in cells, and the specific experimental process was as follows.
I) M-07e Human Cytomegalic Leukemia Cell:
1. The cells were plated into a tissue-culture-medium-treated 96-well plate (Costar #3904) with 3500 cells/well/80 μL fresh culture medium, and cultured for 24 hrs;
(§5) 2. the next day, 10 μL of culture medium containing testing compound with 10-fold of final concentration was added to each well:
3. 10 μL of culture medium containing SCF recombinant human stem cell factor (R&D, cat. No. 7466-SC-010) with 10-fold of the final concentration was then added to each well;
4. the dosage effect was evaluated by testing 4-fold serial dilutions of the compound, which started from 18 μM;
as §1, §2

Test [3] has as its system MV-4-11 human acute monocytic leukemia cells. Nature of the test: Cell proliferation (Cell Titer Glo), MV-4-11 cells (FLT3). It counts as cell-based. As to conditions: MV4-11, 72 h, 3 days, CTG, * = average of multiple tests, read-out: Cytological experiment FLT3 IC50. How it is done: as §3, §4
III) MV-4-11 Human Acute Monocytic Leukemia Cell
1. The cells were inoculated into a tissue-culture-medium-treated 96-well plate (Costar #3904) with 5000 cells/well/90 μL fresh culture medium, and cultured for 24 hrs:
2. the next day, 10 μL of culture medium containing testing compound with 10-fold of final concentration was added to each well;
(§6) 3. the dosage effect was evaluated by testing 3-fold serial dilutions of the compound, which started from 18 μM;
4. after the cells were incubated for 3 days at 37° C. and 5% CO2, the inhibition on cell survival was quantified after 50 μL of CTG was added and the luminescence assay was performed;
(§7) 5. the compound concentration leading to half maximal inhibitory (IC50) and the compound concentration leading to absolute half maximal inhibitory (Absolute IC50) were measured by a plate reader (M1000, Tecan) and a four-parameter curve fit in Graphpad Prism 7.

The test system of test [4] is NCI-H1703 human non-small cell lung squamous carcinoma cells. Kind of test: Cell proliferation (Cell Titer Glo), NCI-H1703 cells (PDGFRA). It counts as cell-based. As to conditions: 72 h, 3 days, CTG, * = average of multiple tests, read-out: Cytological experiment PDGFRA IC50. How it is done: as §3, §4
II) NCI-H1703 Human Non-Small Cell Lung Squamous Carcinoma Cell
1. The cells were inoculated into a tissue-culture-medium-treated 96-well plate (Costar #3904) with 5000 cells/well/90 μL fresh culture medium, and cultured for 24 hrs;
as §5, §6
4. after the cells were incubated for 3 days at 37° C. and 5% CO2, the inhibition on cell survival was quantified after 50 μL of CTG was added and the luminescence assay was performed:
as §7

The mark [5] stands for this setting: read-out: Cytological experiment CSF1R IC50.
The mark [6] stands for this setting: absolute half maximal inhibition, read-out: Cytological experiment CSF-1R Absolute IC50.

Where two headings read alike, the source gives them in different places. Bounds are passed on as bounds.

Usually IC50 stands for the concentration needed to halve the response being measured.

Chain of CSF-1R (P07333 20-972): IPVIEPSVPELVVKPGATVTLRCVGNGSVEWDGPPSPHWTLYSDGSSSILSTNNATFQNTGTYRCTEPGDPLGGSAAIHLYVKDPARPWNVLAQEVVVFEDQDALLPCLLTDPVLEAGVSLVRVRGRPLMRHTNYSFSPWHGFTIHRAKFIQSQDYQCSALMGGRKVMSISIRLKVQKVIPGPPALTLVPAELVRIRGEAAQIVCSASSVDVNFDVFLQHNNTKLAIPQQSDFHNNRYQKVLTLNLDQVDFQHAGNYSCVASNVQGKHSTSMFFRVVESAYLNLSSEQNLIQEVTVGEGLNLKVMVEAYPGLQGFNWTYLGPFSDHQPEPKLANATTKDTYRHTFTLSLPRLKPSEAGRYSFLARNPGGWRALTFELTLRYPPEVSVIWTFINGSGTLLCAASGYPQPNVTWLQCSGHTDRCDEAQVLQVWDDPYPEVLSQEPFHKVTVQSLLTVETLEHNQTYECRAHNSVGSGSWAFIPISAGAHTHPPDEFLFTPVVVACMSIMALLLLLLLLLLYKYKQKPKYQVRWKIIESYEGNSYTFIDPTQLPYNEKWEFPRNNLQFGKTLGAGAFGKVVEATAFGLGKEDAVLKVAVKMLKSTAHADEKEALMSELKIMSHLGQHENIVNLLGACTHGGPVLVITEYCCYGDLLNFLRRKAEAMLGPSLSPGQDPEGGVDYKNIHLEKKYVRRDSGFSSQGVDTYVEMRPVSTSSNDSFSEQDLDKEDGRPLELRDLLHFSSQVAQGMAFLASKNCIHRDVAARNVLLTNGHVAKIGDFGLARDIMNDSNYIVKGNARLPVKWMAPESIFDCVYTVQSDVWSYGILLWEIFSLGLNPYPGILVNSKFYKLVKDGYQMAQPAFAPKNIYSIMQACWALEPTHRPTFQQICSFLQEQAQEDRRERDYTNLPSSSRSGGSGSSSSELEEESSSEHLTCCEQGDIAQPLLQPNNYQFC

Regarding `Cc1nc(-c2cnc3n(c2=O)CCN3C)ccc1Oc1ccnc(-c2cnn(C)c2)c1` [Example 3, 1-methyl-6-(6-methyl-5-((2-(1-methyl-1H-pyrazol-4-yl)pyridin-4-yl)oxy)pyridin-2-yl)-2,3-dihydroimidazo[1,2-a]pyrimidin-5(1H)-one], the IC50 in test [1] (setting [5]) turned out to be 249 nM; in test [1] (setting [6]) it was 185 nM; at CSF-1R it was 157 nM.
For `Cc1nc(-c2cnc3n(c2=O)CC[C@@H](C)N3)ccc1Oc1ccnc(-c2cnn(C)c2)c1` [Example 6, (R)-8-methyl-3-(6-methyl-5-((2-(1-methyl-1H-pyrazol-4-yl)pyridin-4-yl)oxy)pyridin-2-yl)-6,7,8,9-tetrahydro-4H-pyrimido[1,2-a]pyrimidin-4-one], the figures for the IC50 (in test [1] (setting [5]); in test [1] (setting [6]); at CSF-1R) were greater than 2000 nM, 710 nM and 296 nM, respectively.
Regarding `Cc1nc(-c2cnc3n(c2=O)CCCN3C)ccc1Oc1ccnc(-c2cn[nH]c2)c1` [Example 7, 3-(5-((2-(1H-pyrazol-4-yl)pyridin-4-yl)oxy)-6-methylpyridin-2-yl)-9-methyl-6,7,8,9-tetrahydro-4H-pyrimido[1,2-a] pyrimidin-4-one], the IC50 in test [2] is greater than 1120 nM; in test [1] (setting [5]) it was 498 nM; in test [1] (setting [6]), 488 nM; in test [3], greater than 18000 nM; at CSF-1R, 84.2 nM; in test [4] it was greater than 2000 nM.
On to `CCn1cc(-c2cc(Oc3ccc(-c4cnc5n(c4=O)CCCN5C)nc3C)ccn2)cn1` [Example 8], for which the IC50 amounted to 151 nM in test [1] (setting [5]), 361 nM in test [1] (setting [6]) and 77.7 nM on CSF-1R.
As to `Cc1nc(-c2cnc3n(c2=O)CCCN3C2CCC2)ccc1Oc1ccnc(-c2cnn(C)c2)c1` [Example 9, 9-cyclobutyl-3-(6-methyl-5-((2-(1-methyl-1H-pyrazol-4-yl)pyridin-4-yl)oxy)pyridin-2-yl)-6,7,8,9-tetrahydro-4H-pyrimido[1,2-a]pyrimidin-4-one], the IC50 in test [2] is 321 nM; in test [1] (setting [5]) it was 64.8 nM; in test [1] (setting [6]), 58.9 nM; in test [3], 2000 nM; on CSF-1R, 68.3 nM; in test [4], 1580 nM.
Turning to `Cc1nc(-c2cnc3n(c2=O)CCC(C)N3C)ccc1Oc1ccnc(-c2cnn(C)c2)c1` (stereo not drawn) [Example 10, 8,9-dimethyl-3-(6-methyl-5-((2-(1-methyl-1H-pyrazol-4-yl)pyridin-4-yl)oxy)pyridin-2-yl)-6,7,8,9-tetrahydro-4H-pyrimido[1,2-a]pyrimidin-4-one], the IC50 is greater than 18000 nM in test [2]; 134 nM in test [1] (setting [5]); 124 nM in test [1] (setting [6]); greater than 18000 nM in test [3]; 108 nM on CSF-1R; greater than 18000 nM in test [4].
Take `CCCN1CCCn2c1ncc(-c1ccc(Oc3ccnc(-c4cnn(C)c4)c3)c(C)n1)c2=O` [Example 11, 3-(6-methyl-5-((2-(1-methyl-1H-pyrazol-4-yl)pyridin-4-yl)oxy)pyridin-2-yl)-9-propyl-6,7,8,9-tetrahydro-4H-pyrimido [1,2-a]pyrimidin-4-one]: the IC50 is greater than 2000 nM in test [2]; 222 nM in test [1] (setting [5]); 273 nM in test [1] (setting [6]); greater than 6000 nM in test [3]; 319 nM on CSF-1R; greater than 6000 nM in test [4].
Regarding `Cc1nc(-c2cnc3n(c2=O)CC[C@@H]2CCCN32)ccc1Oc1ccnc(-c2cnn(C)c2)c1` [Example 12], the IC50 in test [2] was 755 nM; in test [1] (setting [5]), 85.2 nM; in test [1] (setting [6]) it was 77.8 nM; in test [3], greater than 18000 nM; at CSF-1R it was 107 nM; in test [4] it was greater than 2000 nM.

The values are drawn from patent publication US11130762B2, “Azaaryl derivative, preparation method therefor, and application thereof for use in pharmacy” (Abbisko Therapeutics Co., Ltd., priority 2017, dated 2021).
